Assay results published in US20230148599A1, “FUNGICIDAL MIXTURES CONTAINING PYRAZOLE DERIVATIVES” (FMC Corporation, priority 2020, published 2023).

System: Septoria tritici
Assay: Test A: wheat leaf blotch, preventive spray on wheat seedlings
Format: in vivo
Settings: 50 ppm, 100 = 100% disease control, 0 = no control
Source text: (§1) General protocol for preparing test suspensions for Tests A-F: the test compounds were first dissolved in acetone in an amount equal to 3% of the final volume and then suspended at the desired concentration (in ppm) in acetone and purified water (50/50 mix by volume) containing 250 ppm of the surfactant PEG400 (polyhydric alcohol esters). The resulting test suspensions were then used in Tests A-F.
(§2) The test solution was sprayed to the point of run-off on wheat seedlings. The following day the seedlings were inoculated with a spore suspension of Septoria tritici (the causal agent of wheat leaf blotch) and incubated in a saturated atmosphere at 24° C. for 48 h, and then moved to a growth chamber at 20° C. for 17 days, after which time disease ratings were made.
(§3) A rating of 100 indicates 100% disease control and a rating of 0 indicates no disease control (relative to the controls). A dash (−) indicates the compound was not tested.

Structure (SMILES)	Test A disease control rating
Cc1nn(C)c(Nc2c([N+](=O)[O-])ccc(F)c2F)c1-c1ccc(F)cc1Cl [compound 7]	100%
Cc1nn(C)c(Nc2c(Cl)cc(Br)cc2[N+](=O)[O-])c1-c1ccc(F)cc1Cl [compound 8]	99%
Cc1nn(C)c(Nc2c(F)cc(F)cc2[N+](=O)[O-])c1-c1ccc(Cl)cc1Cl [compound 9]	100%
Cc1nn(C)c(Nc2c(Cl)cc(F)cc2[N+](=O)[O-])c1-c1ccc(Cl)cc1Cl [compound 10]	100%
Cc1nn(C)c(Nc2c(F)cc(Cl)cc2[N+](=O)[O-])c1-c1ccc(Cl)cc1Cl [compound 11]	100%
Cc1nn(C)c(Nc2c(F)cccc2[N+](=O)[O-])c1-c1ccc(Cl)cc1F [compound 12]	100%
Cc1nn(C)c(Nc2c(F)cc(F)cc2[N+](=O)[O-])c1-c1ccc(Cl)cc1F [compound 13]	100%
Cc1ccc(Nc2c(-c3ccc(C#N)cc3Cl)c(C)nn2C)c([N+](=O)[O-])c1 [compound 14]	100%
Cc1cc(Cl)c(Nc2c(-c3ccc(F)cc3F)c(C)nn2C)c([N+](=O)[O-])c1 [compound 15]	100%
CCc1nn(C)c(Nc2c(Cl)cc(C)cc2[N+](=O)[O-])c1-c1ccc(F)cc1F [compound 16]	100%
CCc1nn(C)c(Nc2c(Cl)cccc2[N+](=O)[O-])c1-c1ccc(F)cc1F [compound 17]	100%

System: Puccinia recondita f. sp. tritici
Assay: Test B: wheat leaf rust, preventive spray on wheat seedlings
Format: in vivo
Settings: 50 ppm, 100 = 100% disease control, 0 = no control
Source text: as §1
as §2, with “Puccinia recondita f. sp.” for “Septoria”, “rust)” for “blotch)”, “20°” for “24°”, “24” for “48”, “7” for “17”
as §3

Structure (SMILES)	Test B disease control rating
Cc1nn(C)c(Nc2c([N+](=O)[O-])ccc(F)c2F)c1-c1ccc(F)cc1Cl [compound 7]	99%
Cc1nn(C)c(Nc2c(Cl)cc(Br)cc2[N+](=O)[O-])c1-c1ccc(F)cc1Cl [compound 8]	99%
Cc1nn(C)c(Nc2c(F)cc(F)cc2[N+](=O)[O-])c1-c1ccc(Cl)cc1Cl [compound 9]	100%
Cc1nn(C)c(Nc2c(Cl)cc(F)cc2[N+](=O)[O-])c1-c1ccc(Cl)cc1Cl [compound 10]	99%
Cc1nn(C)c(Nc2c(F)cc(Cl)cc2[N+](=O)[O-])c1-c1ccc(Cl)cc1Cl [compound 11]	98%
Cc1nn(C)c(Nc2c(F)cccc2[N+](=O)[O-])c1-c1ccc(Cl)cc1F [compound 12]	99%
Cc1nn(C)c(Nc2c(F)cc(F)cc2[N+](=O)[O-])c1-c1ccc(Cl)cc1F [compound 13]	99%
Cc1ccc(Nc2c(-c3ccc(C#N)cc3Cl)c(C)nn2C)c([N+](=O)[O-])c1 [compound 14]	97%
Cc1cc(Cl)c(Nc2c(-c3ccc(F)cc3F)c(C)nn2C)c([N+](=O)[O-])c1 [compound 15]	100%
CCc1nn(C)c(Nc2c(Cl)cc(C)cc2[N+](=O)[O-])c1-c1ccc(F)cc1F [compound 16]	99%
CCc1nn(C)c(Nc2c(Cl)cccc2[N+](=O)[O-])c1-c1ccc(F)cc1F [compound 17]	92%

System: Blumeria graminis f. sp. tritici
Assay: Test C: wheat powdery mildew, preventive spray on wheat seedlings
Format: in vivo
Settings: 50 ppm, 100 = 100% disease control, 0 = no control
Source text: as §1
The test suspension was sprayed to the point of run-off on wheat seedlings. The following day the seedlings were inoculated with a spore dust of Blumeria graminis f. sp. tritici, (also known as Erysiphe graminis f. sp. tritici, the causal agent of wheat powdery mildew) and incubated in a growth chamber at 20° C. for 8 days, after which time visual disease ratings were made.
as §3

Structure (SMILES)	Test C disease control rating
Cc1nn(C)c(Nc2c([N+](=O)[O-])ccc(F)c2F)c1-c1ccc(F)cc1Cl [compound 7]	94%
Cc1nn(C)c(Nc2c(Cl)cc(Br)cc2[N+](=O)[O-])c1-c1ccc(F)cc1Cl [compound 8]	92%
Cc1nn(C)c(Nc2c(F)cc(F)cc2[N+](=O)[O-])c1-c1ccc(Cl)cc1Cl [compound 9]	97%
Cc1nn(C)c(Nc2c(Cl)cc(F)cc2[N+](=O)[O-])c1-c1ccc(Cl)cc1Cl [compound 10]	48%
Cc1nn(C)c(Nc2c(F)cc(Cl)cc2[N+](=O)[O-])c1-c1ccc(Cl)cc1Cl [compound 11]	97%
Cc1nn(C)c(Nc2c(F)cccc2[N+](=O)[O-])c1-c1ccc(Cl)cc1F [compound 12]	81%
Cc1nn(C)c(Nc2c(F)cc(F)cc2[N+](=O)[O-])c1-c1ccc(Cl)cc1F [compound 13]	97%
Cc1ccc(Nc2c(-c3ccc(C#N)cc3Cl)c(C)nn2C)c([N+](=O)[O-])c1 [compound 14]	83%
Cc1cc(Cl)c(Nc2c(-c3ccc(F)cc3F)c(C)nn2C)c([N+](=O)[O-])c1 [compound 15]	98%
CCc1nn(C)c(Nc2c(Cl)cc(C)cc2[N+](=O)[O-])c1-c1ccc(F)cc1F [compound 16]	98%
CCc1nn(C)c(Nc2c(Cl)cccc2[N+](=O)[O-])c1-c1ccc(F)cc1F [compound 17]	94%

System: Phakopsora pachyrhizi
Assay: Test D: Asian soybean rust, preventive spray on soybean seedlings
Format: in vivo
Settings: 50 ppm, 100 = 100% disease control, 0 = no control
Source text: as §1
The test solution was sprayed to the point of run-off on soybean seedlings. The following day the seedlings were inoculated with a spore suspension of Phakopsora pachyrhizi (the causal agent of Asian soybean rust) and incubated in a saturated atmosphere at 22° C. for 24 h and then moved to a growth chamber at 22° C. for 8 days, after which time visual disease ratings were made.
as §3

Structure (SMILES)	Test D disease control rating
Cc1nn(C)c(Nc2c([N+](=O)[O-])ccc(F)c2F)c1-c1ccc(F)cc1Cl [compound 7]	96%
Cc1nn(C)c(Nc2c(Cl)cc(Br)cc2[N+](=O)[O-])c1-c1ccc(F)cc1Cl [compound 8]	73%
Cc1nn(C)c(Nc2c(F)cc(F)cc2[N+](=O)[O-])c1-c1ccc(Cl)cc1Cl [compound 9]	0%
Cc1nn(C)c(Nc2c(Cl)cc(F)cc2[N+](=O)[O-])c1-c1ccc(Cl)cc1Cl [compound 10]	0%
Cc1nn(C)c(Nc2c(F)cc(Cl)cc2[N+](=O)[O-])c1-c1ccc(Cl)cc1Cl [compound 11]	0%
Cc1nn(C)c(Nc2c(F)cccc2[N+](=O)[O-])c1-c1ccc(Cl)cc1F [compound 12]	0%
Cc1nn(C)c(Nc2c(F)cc(F)cc2[N+](=O)[O-])c1-c1ccc(Cl)cc1F [compound 13]	19%
Cc1ccc(Nc2c(-c3ccc(C#N)cc3Cl)c(C)nn2C)c([N+](=O)[O-])c1 [compound 14]	48%
Cc1cc(Cl)c(Nc2c(-c3ccc(F)cc3F)c(C)nn2C)c([N+](=O)[O-])c1 [compound 15]	61%
CCc1nn(C)c(Nc2c(Cl)cc(C)cc2[N+](=O)[O-])c1-c1ccc(F)cc1F [compound 16]	50%
CCc1nn(C)c(Nc2c(Cl)cccc2[N+](=O)[O-])c1-c1ccc(F)cc1F [compound 17]	0%

System: Botrytis cinerea
Assay: Test E: tomato Botrytis, preventive spray on tomato seedlings
Format: in vivo
Settings: 50 ppm, 100 = 100% disease control, 0 = no control
Source text: as §1
(§4) The test suspension was sprayed to the point of run-off on tomato seedlings. The following day the seedlings were inoculated with a spore suspension of Botrytis cinerea (the causal agent of tomato Botrytis) and incubated in a saturated atmosphere at 20° C. for 48 h, and then moved to a growth chamber at 24° C. for 3 days, after which time visual disease ratings were made.
as §3

Structure (SMILES)	Test E disease control rating
Cc1nn(C)c(Nc2c([N+](=O)[O-])ccc(F)c2F)c1-c1ccc(F)cc1Cl [compound 7]	99%
Cc1nn(C)c(Nc2c(Cl)cc(Br)cc2[N+](=O)[O-])c1-c1ccc(F)cc1Cl [compound 8]	99%
Cc1nn(C)c(Nc2c(F)cc(F)cc2[N+](=O)[O-])c1-c1ccc(Cl)cc1Cl [compound 9]	97%
Cc1nn(C)c(Nc2c(Cl)cc(F)cc2[N+](=O)[O-])c1-c1ccc(Cl)cc1Cl [compound 10]	68%
Cc1nn(C)c(Nc2c(F)cc(Cl)cc2[N+](=O)[O-])c1-c1ccc(Cl)cc1Cl [compound 11]	98%
Cc1nn(C)c(Nc2c(F)cccc2[N+](=O)[O-])c1-c1ccc(Cl)cc1F [compound 12]	97%
Cc1nn(C)c(Nc2c(F)cc(F)cc2[N+](=O)[O-])c1-c1ccc(Cl)cc1F [compound 13]	68%
Cc1ccc(Nc2c(-c3ccc(C#N)cc3Cl)c(C)nn2C)c([N+](=O)[O-])c1 [compound 14]	96%
Cc1cc(Cl)c(Nc2c(-c3ccc(F)cc3F)c(C)nn2C)c([N+](=O)[O-])c1 [compound 15]	99%
CCc1nn(C)c(Nc2c(Cl)cc(C)cc2[N+](=O)[O-])c1-c1ccc(F)cc1F [compound 16]	99%
CCc1nn(C)c(Nc2c(Cl)cccc2[N+](=O)[O-])c1-c1ccc(F)cc1F [compound 17]	99%

System: Alternaria solani
Assay: Test F: tomato early blight, preventive spray on tomato seedlings
Format: in vivo
Settings: 50 ppm, 100 = 100% disease control, 0 = no control
Source text: as §1
as §4, with “Alternaria solani” for “Botrytis cinerea”, “early blight)” for “Botrytis)”, “27°” for “20°”, “20°” for “24°”
as §3

Structure (SMILES)	Test F disease control rating
Cc1nn(C)c(Nc2c([N+](=O)[O-])ccc(F)c2F)c1-c1ccc(F)cc1Cl [compound 7]	89%
Cc1nn(C)c(Nc2c(Cl)cc(Br)cc2[N+](=O)[O-])c1-c1ccc(F)cc1Cl [compound 8]	73%
Cc1nn(C)c(Nc2c(F)cc(F)cc2[N+](=O)[O-])c1-c1ccc(Cl)cc1Cl [compound 9]	99%
Cc1nn(C)c(Nc2c(Cl)cc(F)cc2[N+](=O)[O-])c1-c1ccc(Cl)cc1Cl [compound 10]	9%
Cc1nn(C)c(Nc2c(F)cc(Cl)cc2[N+](=O)[O-])c1-c1ccc(Cl)cc1Cl [compound 11]	99%
Cc1nn(C)c(Nc2c(F)cccc2[N+](=O)[O-])c1-c1ccc(Cl)cc1F [compound 12]	53%
Cc1nn(C)c(Nc2c(F)cc(F)cc2[N+](=O)[O-])c1-c1ccc(Cl)cc1F [compound 13]	89%
Cc1ccc(Nc2c(-c3ccc(C#N)cc3Cl)c(C)nn2C)c([N+](=O)[O-])c1 [compound 14]	83%
Cc1cc(Cl)c(Nc2c(-c3ccc(F)cc3F)c(C)nn2C)c([N+](=O)[O-])c1 [compound 15]	53%
CCc1nn(C)c(Nc2c(Cl)cc(C)cc2[N+](=O)[O-])c1-c1ccc(F)cc1F [compound 16]	0%
CCc1nn(C)c(Nc2c(Cl)cccc2[N+](=O)[O-])c1-c1ccc(F)cc1F [compound 17]	9%
